Reference: PMC9501129 (Pharmaceutics, 2022)
Where two headings read alike, the source gives them in different places.

Tests used:
[1] = tested on: simian/human immunodeficiency virus (SHIV); settings: long-acting CAB; cited from earlier work
[2] = cited from earlier work
[3] = cited from earlier work; remark: listed apart in the source
[4] = Maternal plasma drug concentration in mouse pregnancy model (HPLC-MSMS); format: in vivo, C57BL/6J mice; settings: pregnant mice, mean (SD), n=2; for concentration at 24 h / Cmax at 1 h: female, C57BL/6J, mouse, plasma; for concentration at 24 h: oral, read-out: Plasma Concentration 24 h (Cmin)
From the text: All animal experiments were approved by the University Health Network Animal Use Committee (protocol #2575) and performed according to the policies and guidelines of the Canadian Council on Animal Care. C57BL/6J mice bred in-house (original breeders from Jackson Laboratory RRID:IMSR JAX:000664) were maintained under a 12-h light/dark cycle, with ad libitum access to food and water. Animals were acclimated to their surroundings for 1 week prior to experiment initiation. Males were isolated for 7 days prior to mating. Female mice (7–12 weeks of age) were mated with males at a ratio of 2:1. Presence of vaginal plug was denoted as gestational day 0.5 (GD0.5). Pregnancy was confirmed by weight gain of >1.5 g on GD9.5 and >3 g on GD13.5. […] The equivalent mouse mg/kg dose was calculated based on the human dose divided by an assumed average human weight of 60 kg. The dose of TDF/FTC was kept constant across the different dosages of BIC and CAB. On GD15.5, mice underwent saphenous bleed 24 h after the GD14.5 dose administration (trough). Immediately after the saphenous bleed, mice were dosed with the appropriate drug regimen and sacrificed 1 h post-treatment (peak), at which time blood was collected by cardiac puncture and amniotic fluid was collected by dissecting the uterus, puncturing the amniotic sac, and draining the amniotic fluid into a sterile dish. Amniotic fluid was pooled for the entire litter. Samples from 2 dams per arm were analyzed for drug levels.
BIC and CAB levels in plasma and amniotic fluid were determined using a validated, simultaneous assay using high-performance liquid chromatography coupled with tandem mass spectrometry (HPLC-MSMS). Briefly, 50 μL of plasma or amniotic fluid was spiked with internal standard (ritonavir-d6) followed by protein precipitation with acetonitrile and filtration. Filtrates were diluted 1:9 with ammonium acetate buffer (10 mM) and analyzed by the HPLC-MSMS system, consisting of a Shimadzu Nexera XR high-performance liquid chromatograph (Shimadzu, Columbia, MD, USA) coupled with a SCIEX API 4500 QqQ mass spectrometer (SCIEX, Concord, ON, Canada). Chromatographic separation by Mobile Phase A (10% methanol, 5% 50 mM ammonium acetate, 85% 0.25% acetic acid pH 3.6 ± 0.2) and Mobile Phase B (90% methanol, 5% 50 mM ammonium acetate, 5% 0.25% acetic acid pH 6.6 ± 0.2) was performed under linear gradient conditions (flow rate 0.7 mL/min) on a reverse-phase Zorbax XDB-C18 column (Agilent Technologies, Santa Clara, CA, USA) maintained at 40 °C. […] HPLC-MSMS data were acquired using Analyst (v 1.6.3, SCIEX, Concord, ON, Canada) and analyzed with MultiQuant software (v 3.0.3, SCIEX, Concord, ON, Canada). […] No peaks were detected in blank mouse plasma at the retention time with the specific ion settings for each compound. […] Positive controls spiked in-house and prepared by an external laboratory during a sample exchange program were included in all runs.

[5] = ART-naïve, Switch study, ART-experienced, virologically suppressed, CAB/rilpivirin LA every 4 weeks, initial injection 600 mg IM
[6] = ART-naïve, Switch study, ART-experienced, virologically suppressed, CAB/rilpivirin LA every 4 weeks, oral 30 mg once daily
[7] = Healthy Participants (Females), 30 mg oral phase, 600 mg LA CAB every 12 weeks, 1st injection
[8] = Healthy Participants (Females), 30 mg oral phase, 600 mg LA CAB every 12 weeks, 2nd injection
[9] = Healthy Participants (Females), 30 mg oral phase, 600 mg LA CAB every 12 weeks, 3rd injection
[10] = Healthy Participants (Females), 30 mg oral phase, 600 mg LA CAB every 12 weeks, 4th injection
[11] = Healthy Participants (Females), 30 mg oral phase, 600 mg LA CAB every 12 weeks, 5th injection
[12] = Healthy Participants (Females), 30 mg oral phase, 800 mg LA CAB every 12 weeks, 1st injection
[13] = Healthy Participants (Females), 30 mg oral phase, 800 mg LA CAB every 12 weeks, 2nd injection
[14] = Healthy Participants (Females), 30 mg oral phase, 800 mg LA CAB every 12 weeks, 3rd injection
[15] = Healthy Participants (Males), 30 mg oral phase, 600 mg LA CAB every 12 weeks, 1st injection
[16] = Healthy Participants (Males), 30 mg oral phase, 600 mg LA CAB every 12 weeks, 2nd injection
[17] = Healthy Participants (Males), 30 mg oral phase, 600 mg LA CAB every 12 weeks, 3rd injection
[18] = Healthy Participants (Males), 30 mg oral phase, 600 mg LA CAB every 12 weeks, 4th injection
[19] = Healthy Participants (Males), 30 mg oral phase, 600 mg LA CAB every 12 weeks, 5th injection
[20] = Healthy Participants (Males), 30 mg oral phase, 800 mg LA CAB every 12 weeks, 1st injection, ref 28
[21] = Healthy Participants (Males), 30 mg oral phase, 800 mg LA CAB every 12 weeks, 1st injection, ref 29
[22] = Healthy Participants (Males), 30 mg oral phase, 800 mg LA CAB every 12 weeks, 2nd injection, ref 28
[23] = Healthy Participants (Males), 30 mg oral phase, 800 mg LA CAB every 12 weeks, 2nd injection, ref 29
[24] = Healthy Participants (Males), 30 mg oral phase, 800 mg LA CAB every 12 weeks, 3rd injection, ref 28
[25] = Healthy Participants (Males), 30 mg oral phase, 800 mg LA CAB every 12 weeks, 3rd injection, ref 29
[26] = Healthy Participants, oral lead-in followed by LA CAB IM or SC injection: 30 mg, with Rilpivirine LA IM monthly
[27] = Healthy Participants, oral lead-in followed by LA CAB injection: 200 mg IM, with Rilpivirine LA IM monthly
[28] = Healthy Participants, oral lead-in followed by LA CAB injection: 200 mg SC, with Rilpivirine LA IM monthly
[29] = Healthy Participants, oral lead-in followed by LA CAB injection: 400 mg IM, with Rilpivirine LA IM monthly
[30] = Healthy Participants, oral lead-in followed by LA CAB injection: 800 mg IM, with Rilpivirine LA IM monthly
[31] = Healthy Participants, repeat oral dose 5 mg
[32] = Healthy Participants, repeat oral dose 10 mg
[33] = Healthy Participants, repeat oral dose 25 mg
[34] = Healthy Participants, single oral dose 5 mg
[35] = Healthy Participants, single oral dose 10 mg
[36] = Healthy Participants, single oral dose 25 mg
[37] = Healthy Participants, single oral dose 50 mg
[38] = Participants with HIV, repeat oral dose 30 mg
[39] = Participants with HIV, single oral dose 5 mg
[40] = of 13 pregnant women living with HIV (4 oral CAB, 9 LA CAB)
[41] = CAB 0.5 mg/kg (1×) oral gavage once daily GD11.5-GD15.5 with TDF 50 mg/kg + FTC 33.3 mg/kg
[42] = CAB 1.5 mg/kg (3×) oral gavage once daily GD11.5-GD15.5 with TDF 50 mg/kg + FTC 33.3 mg/kg
[43] = CAB 5 mg/kg (10×) oral gavage once daily GD11.5-GD15.5 with TDF 50 mg/kg + FTC 33.3 mg/kg

C[C@H]1CO[C@@H]2Cn3cc(C(=O)NCc4ccc(F)cc4F)c(=O)c(O)c3C(=O)N12 [CAB, cabotegravir]
Efficacy against intrarectal SHIV [1]: protective efficacy
Efficacy against repeated high-dose intravaginal SHIV [1]: protective efficacy
Human Plasma Levels Cmax [2, 5]: 8000 ng/mL
Human Plasma Levels Cmin [2, 5]: 1500 ng/mL
Human Plasma Levels Cmin ([2]; ART-naïve, Switch study, ART-experienced, virologically suppressed, CAB/rilpivirin LA every 4 weeks, monthly injection 400 mg IM): 2800 ng/mL
Human Plasma Levels Cmax [2, 6]: 8000 ng/mL
Human Plasma Levels Cmin [2, 6]: 4600 ng/mL
Human Plasma Levels Cmax [2, 7]: 1580 ng/mL
Human Plasma Levels Cmin [2, 7]: 1330 ng/mL
Human Plasma Levels Cmax [2, 8]: 2960 ng/mL
Human Plasma Levels Cmin [2, 8]: 1820 ng/mL
Human Plasma Levels Cmax [2, 9]: 3460 ng/mL
Human Plasma Levels Cmin [2, 9]: 2040 ng/mL
Human Plasma Levels Cmax [2, 10]: 3330 ng/mL
Human Plasma Levels Cmin [2, 10]: 2060 ng/mL
Human Plasma Levels Cmax [2, 11]: 3660 ng/mL
Human Plasma Levels Cmin [2, 11]: 2030 ng/mL
Human Plasma Levels Cmax [2, 12]: 1890 ng/mL
Human Plasma Levels Cmin [2, 12]: 950 ng/mL
Human Plasma Levels Cmax [2, 13]: 2290 ng/mL
Human Plasma Levels Cmin [2, 13]: 1350 ng/mL
Human Plasma Levels Cmax [2, 14]: 3010 ng/mL
Human Plasma Levels Cmin [2, 14]: 1650 ng/mL
Human Plasma Levels Cmax [2, 15]: 2510 ng/mL
Human Plasma Levels Cmin [2, 15]: 1790 ng/mL
Human Plasma Levels Cmax [2, 16]: 3900 ng/mL
Human Plasma Levels Cmin [2, 16]: 1290 ng/mL
Human Plasma Levels Cmax [2, 17]: 2960 ng/mL
Human Plasma Levels Cmin [2, 17]: 1110 ng/mL
Human Plasma Levels Cmax [2, 18]: 2960 ng/mL
Human Plasma Levels Cmin [2, 18]: 1460 ng/mL
Human Plasma Levels Cmax [2, 19]: 3820 ng/mL
Human Plasma Levels Cmin [2, 19]: 1680 ng/mL
Human Plasma Levels Cmax [2, 20]: 4260 ng/mL
Human Plasma Levels Cmin [2, 20]: 302 ng/mL
Human Plasma Levels Cmax [2, 21]: 2670 ng/mL
Human Plasma Levels Cmin [2, 21]: 490 ng/mL
Human Plasma Levels Cmax [2, 22]: 5220 ng/mL
Human Plasma Levels Cmin [2, 22]: 331 ng/mL
Human Plasma Levels Cmax [2, 23]: 2570 ng/mL
Human Plasma Levels Cmin [2, 23]: 780 ng/mL
Human Plasma Levels Cmax [2, 24]: 4910 ng/mL
Human Plasma Levels Cmin [2, 24]: 387 ng/mL
Human Plasma Levels Cmax [2, 25]: 3390 ng/mL
Human Plasma Levels Cmin [2, 25]: 820 ng/mL
Human Plasma Levels Cmax ([2]; Healthy Participants, IM (gluteal) injection 100 mg IM): 200 ng/mL
Human Plasma Levels Cmax ([2]; Healthy Participants, IM (gluteal) injection 200 mg IM): 300 ng/mL
Human Plasma Levels Cmax ([2]; Healthy Participants, IM (gluteal) injection 400 mg (200 mg × 2)): 1400 ng/mL
Human Plasma Levels Cmax ([2]; Healthy Participants, IM (gluteal) injection 400 mg IM): 700 ng/mL
Human Plasma Levels Cmax ([2]; Healthy Participants, IM (gluteal) injection 800 mg IM (400 mg × 2)): 3300 ng/mL
Human Plasma Levels Cmax ([2]; Healthy Participants, SC (abdominal) injection 100 mg): 200 ng/mL
Human Plasma Levels Cmax ([2]; Healthy Participants, SC (abdominal) injection 200 mg): 500 ng/mL
Human Plasma Levels Cmax ([2]; Healthy Participants, SC (abdominal) injection 400 mg (200 mg × 2)): 900 ng/mL
Human Plasma Levels Cmax [2, 26]: 8300 ng/mL
Human Plasma Levels Cmin [2, 26]: 4900 ng/mL
Human Plasma Levels Cmax [2, 27]: 2200 ng/mL
Human Plasma Levels Cmin [2, 27]: 1610 ng/mL
Human Plasma Levels Cmax [2, 28]: 2100 ng/mL
Human Plasma Levels Cmin [2, 28]: 1660 ng/mL
Human Plasma Levels Cmax [2, 29]: 4400 ng/mL
Human Plasma Levels Cmin [2, 29]: 3270 ng/mL
Human Plasma Levels Cmax [2, 30]: 3300 ng/mL
Human Plasma Levels Cmin [2, 30]: 1100 ng/mL
Human Plasma Levels Cmax [2, 31]: 2080 ng/mL
Human Plasma Levels Cmin [2, 31]: 1060 ng/mL
Human Plasma Levels Cmax [2, 32]: 4290 ng/mL
Human Plasma Levels Cmin [2, 32]: 2390 ng/mL
Human Plasma Levels Cmax [2, 33]: 9470 ng/mL
Human Plasma Levels Cmin [2, 33]: 5400 ng/mL
Human Plasma Levels Cmax [2, 34]: 1150 ng/mL
Human Plasma Levels Cmin [2, 34]: 420 ng/mL
Human Plasma Levels Cmax [2, 35]: 2150 ng/mL
Human Plasma Levels Cmin [2, 35]: 830 ng/mL
Human Plasma Levels Cmax [2, 36]: 4380 ng/mL
Human Plasma Levels Cmin [2, 36]: 1930 ng/mL
Human Plasma Levels Cmax [2, 37]: 8570 ng/mL
Human Plasma Levels Cmin [2, 37]: 3820 ng/mL
Human Plasma Levels Cmin ([2]; Participants with HIV, CAB/rilpivirine LA injectable, repeat-dose every 4 week 400 mg): 2740 ng/mL
Human Plasma Levels Cmin ([2]; Participants with HIV, CAB/rilpivirine LA injectable, repeat-dose every 8 week 600 mg): 1670 ng/mL
Human Plasma Levels Cmax ([2]; Participants with HIV, repeat oral dose 5 mg): 1020 ng/mL
Human Plasma Levels Cmax [2, 38]: 6370 ng/mL
Human Plasma Levels Cmin [2, 38]: 3280 ng/mL
Human Plasma Levels Cmax [2, 39]: 520 ng/mL
Human Plasma Levels Cmin [2, 39]: 230 ng/mL
Human Plasma Levels Cmin ([2]; Participants with HIV, single oral dose 30 mg (Ctau)): 1250 ng/mL
Human Plasma Levels Cmax ([2]; Participants with HIV, single oral dose 30 mg): 2840 ng/mL
Birth defects ([3]; 13 pregnant women living with HIV (4 oral CAB, 9 LA CAB)): No cases of birth defects were reported
Women with live births [3, 40]: Four
Women with miscarriage within the first nine weeks of gestation [3, 40]: four
concentration at 24 h [4, 41]: 260 ng/mL
concentration at 24 h [4, 42]: 480 ng/mL
concentration at 24 h [4, 43]: ~1300 ng/mL
Cmax at 1 h [4, 41]: 913 ng/mL
Cmax at 1 h [4, 42]: 1270 ng/mL
Cmax at 1 h [4, 43]: 3580 ng/mL
Plasma Concentration 24 h (Cmin) [4, 43]: 1306 (402) ng/mL
